We go through one compound from patent publication US8188150B2, “Use of beta-aminoalcohols in the treatment of inflammatory disorders and pain” (Biocopea Limited, priority 2006, dated 2012).

One assay deals with TNFα. Briefly: LPS Mouse Assay, serum TNFα by ELISA. To be noted: i.p. or oral, 30 minutes before 1 mg/kg LPS i.p.; serum 2 hours after LPS. The assay is classed as in vivo, Balb C ByJ mice. The method, then: (§1) 7 week-old Balb C ByJ mice (24-28 g) were administered, either by i.p. (5 ml/kg) or oral (10 ml/kg) administration, with vehicle or test article. 30 minutes later these animals were challenged with an intraperitoneal injection of 1 mg/kg LPS. 2 hours after LPS challenge blood samples were collected under light isoflurane anaesthesia into normal tubes by retro-orbital puncture. Samples were allowed to clot at room temperature and then spun at 6000 g for 3 min at 4° C. Serum was stored at −20° C. until use. Serum TNFα and IL-10 levels were analysed in duplicate by ELISA technique.
On the technique in general: An ELISA detects its analyte on a solid surface through an enzyme-linked reagent.

The next assay concerns IL-10. Description: LPS Mouse Assay, serum IL-10 by ELISA. The assay is classed as in vivo, Balb C ByJ mice. To be noted: i.p. or oral, 30 minutes before 1 mg/kg LPS i.p.; serum 2 hours after LPS. On the procedure: as §1
In assay [1] the test system is inflammation induced by carrageenan paw injection. Description: Carrageenan Paw Assay. The assay is classed as in vivo, male Wistar rats. Particulars: oral gavage, half an hour before 2% carrageenan; paw measured at 1-5 hours. The method, then:
Fasted (18 hour) male Wistar rats (105-130 g) were weighed and a basal mercury plethysmometer reading was taken of the right hind paw by submerging the paw in the mercury up to the tibiotarsal joint. Subsequently, vehicles, reference items and test articles were administered by oral gavage (10 ml/kg). Half an hour after treatment 0.1 ml of 2% carrageenan in 0.9% saline was injected into the subplanatar area of the right hind paw. The right paw was measured again with the plethysmometer at 1, 2, 3, 4 and 5 hours after carrageenan administration.
(In general: In the carrageenan paw model, swelling and tenderness develop within hours.)

As to `CC(C)(CO)NCC(=O)c1cc(Cl)c(N)c(Cl)c1` [Compound (3), 1-(4-Amino-3,5-dichlorophenyl)-2-(1-hydroxy-2-methylpropan-2-ylamino)ethanone], in the assay on TNFα, the “effect on serum TNFα” value is recorded as “strong inhibitory effects”. For the same compound, in the assay with IL-10, the “effect on serum IL-10” value is “potentiating effects”. The “effect on inflammation induced by carrageenan paw injection” value in assay [1] is on record as “dose-dependant inhibitory effect”.
